Data: EP4793271A1, “NEUROPROTECTIVE AGENT” (National Center of Neurology and Psychiatry, priority 2023, dated 2025)
Like-named read-outs stand apart in the source and are kept apart here.

Columns and labels:
hSARM1 [1] = target: T1, hSARM1 (Homo sapiens, UniProt Q6SZW1); experiment: SARM1 inhibitory activity using recombinant SARM1 (PC6 base exchange fluorescence); format: biochemical; parameters: purchased BPS Bioscience; conditions: recombinant human SARM1 2 ng/µL; NMN 10 µM; NAD 1 mM; PC6 50 µM; result in words
T1 sequence (Q6SZW1 28-724): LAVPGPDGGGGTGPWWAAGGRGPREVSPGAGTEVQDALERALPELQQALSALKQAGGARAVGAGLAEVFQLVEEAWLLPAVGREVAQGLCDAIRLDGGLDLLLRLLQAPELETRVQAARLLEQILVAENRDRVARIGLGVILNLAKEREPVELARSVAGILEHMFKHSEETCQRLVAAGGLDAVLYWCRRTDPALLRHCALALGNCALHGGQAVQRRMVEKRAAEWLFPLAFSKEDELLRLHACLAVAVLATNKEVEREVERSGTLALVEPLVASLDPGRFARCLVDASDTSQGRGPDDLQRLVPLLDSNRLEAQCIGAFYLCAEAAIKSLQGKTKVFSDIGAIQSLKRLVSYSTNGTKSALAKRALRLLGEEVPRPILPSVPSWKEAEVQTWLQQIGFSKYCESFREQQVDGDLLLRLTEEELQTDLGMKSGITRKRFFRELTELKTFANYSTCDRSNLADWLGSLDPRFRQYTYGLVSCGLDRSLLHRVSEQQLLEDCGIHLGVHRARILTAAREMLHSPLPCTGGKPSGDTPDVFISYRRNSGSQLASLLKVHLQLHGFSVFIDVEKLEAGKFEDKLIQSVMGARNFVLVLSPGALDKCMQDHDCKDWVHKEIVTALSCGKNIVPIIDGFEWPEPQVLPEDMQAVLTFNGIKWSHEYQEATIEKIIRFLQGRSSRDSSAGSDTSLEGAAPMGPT
Experimental: The SARM1 inhibitory activity was evaluated by the following method using recombinant SARM1 from BPS Bioscience.
NMN, an endogenous activator for SARM1, was added at a final concentration of 10 µM to a reaction solution (composition: 40 mM HEPES-KOH (pH 7.4), 0.1% polyvinyl alcohol, and 110 mM potassium acetate) using a 96-well black plate. Subsequently, serial dilutions of the test compound and recombinant human SARM1 (final concentration: 2 ng/µL) were added thereto and preincubated at room temperature for 5 to 10 minutes. NAD and PC6 were added as substrates at final concentrations of 1 mM and 50 µM, respectively, to each well and incubated at room temperature for 1 hour, followed by fluorescent signal measurement using SpectraMax M2 (Molecular Devices) (excitation: 390 nm, fluorescence: 520 nm, fluorescence cutoff: 515 nm) (Li et al, eLife 2021 10: e67381). The fluorescent signal was normalized by using fluorescence intensity measured from a control group without addition of recombinant human SARM1 as a background whereas using fluorescence intensity measured from a control group supplemented with recombinant human SARM1 as the negative control, and plotted as the function of the test compound concentrations, and the compound was evaluated for its SARM1 inhibitory activity by calculating IC50.

[2] = mouse, in vivo
Experimental: Compound 35 was intravenously (iv: 1 mg/5 ml/kg) administered at a single dose to C57BL/6J male mice (about 10 weeks old (non-fasted), n = 3), and blood was collected 5, 15, and 30 minutes, and 1, 2, 4, 8, and 24 hours later. Likewise, compound 35 was orally (po: 10 mg/10 ml/kg) administered at a single dose to C57BL/6J male mice (about 10 weeks old (non-fasted), n = 3), and blood was collected 15 and 30 minutes, and 1, 2, 4, 8, and 24 hours later. Urine was collected from each mouse up to 24 hours after administration (pooled urine).

[3] = test system: primary cultured cells of mouse fetus-derived dorsal root ganglia (DRGs); experiment: Suppression of axonal degeneration after axotomy in DRG explant culture; format: cell-based; conditions: minimum concentration at which axonal degeneration was suppressed (DI 0.3 or less), 24 hours after axotomy; for minimal effective concentration: Mus musculus, read-out: Evaluation on protection against degeneration
Summary of the method: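 Embryonic ICR mouse DRG explants were cultured 7–8 days in nicotinamide-free neuronal medium with NGF, then axotomized by removing the cell bodies. Compound (100 pM–10 µM final, 0.1% DMSO) was added within 30 min, and neurites were imaged 24 h later. The result is the lowest concentration giving degeneration index ≤0.3.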

[4] = target: T2, nicotinamide phosphoribosyl transferase (NAMPT) (Homo sapiens, UniProt P43490); experiment: NAMPT activity measurement (NMN fluorescence detection); format: biochemical; conditions: NAMPT recombinant protein, 10 µM Nam; for IC50: read-out: Evaluation on NAMPT inhibitory
T2 construct: purchased Medical & Biological Laboratories Co., Ltd. (MBL)
Summary of the method: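 Recombinant NAMPT reacted with 10 µM Nam, 0.5 µM PRPP, 2 µM ATP in Tris pH 7.4 buffer with MgCl2, DTT, BSA; product NMN quantified by fluorescence (ex 421/em 480 nm) after derivatization with 2-acetylbenzofuran. Compounds at 3 nM–10 µM; control-normalized signal used for IC50.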

hSARM1 [5] = target: T1, hSARM1; experiment: Human SARM1 activity measurement in HEK293 cells transiently transfected with ΔN-hSARM1 (PC6 fluorescent probe); format: cell-based; parameters: expressed in transfected cells; host or cells: HEK293, pcDNA3 expression vector
Summary of the method: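 HEK293 cells in nicotinamide-free DMEM with 5 μM nicotinamide, transiently transfected with mitochondrial-targeting-deleted ΔN-hSARM1; PC6 base-exchange fluorescent probe (50 μM) plus compound (30 μM) added ~8 h post-transfection. Fluorescence (ex 405/em 525 nm) read ~48 h from transfection; inhibition % versus transfected DMSO control, untransfected background subtracted.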

[6] = In vitro analysis of metabolite production with a UV (254 nm) chromatogram
[7] = inhibition rate, compound 30 µM, PC6 50 µM, HEK293 cells expressing ΔN-hSARM1, approximately 48 hours from transfection, read-out: Evaluation on hSARM1 inhibitory

T2 sequence (P43490 whole entry, species assumed): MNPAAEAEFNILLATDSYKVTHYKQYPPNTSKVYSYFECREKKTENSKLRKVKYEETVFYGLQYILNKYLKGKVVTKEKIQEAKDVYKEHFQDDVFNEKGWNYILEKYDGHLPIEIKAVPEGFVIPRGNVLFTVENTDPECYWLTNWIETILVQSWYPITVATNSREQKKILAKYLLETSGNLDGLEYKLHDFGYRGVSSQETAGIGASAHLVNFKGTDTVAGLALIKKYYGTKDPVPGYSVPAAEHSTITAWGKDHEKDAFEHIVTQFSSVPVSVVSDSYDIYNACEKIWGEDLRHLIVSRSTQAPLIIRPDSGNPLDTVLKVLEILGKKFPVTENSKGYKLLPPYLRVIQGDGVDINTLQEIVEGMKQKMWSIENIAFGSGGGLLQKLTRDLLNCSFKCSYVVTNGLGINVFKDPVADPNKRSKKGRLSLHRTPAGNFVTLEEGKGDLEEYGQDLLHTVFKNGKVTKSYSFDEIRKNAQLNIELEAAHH

| Evaluation on NAMPT inhibitory [4] | inhibition at 30 µM (hSARM1 [5]; [7]) | SMILES | minimal effective concentration [3] | further results |
| --- | --- | --- | --- | --- |
|  |  | Nc1ncnc2c1ncn2[C@@H]1O[C@H](COP(=O)([O-])OP(=O)(O)OC[C@H]2O[C@@H]([n+]3cccc(C(=O)NCCCOCCOCCCNC(=O)c4cccnc4)c3)[C@H](O)[C@@H]2O)[C@@H](O)[C@H]1O [compound 35-NAD-like metabolite] |  | SARM1 inhibitory activity (hSARM1 [1]): stronger activity than that of compound 35 |
|  |  | O=C(NCCCOCCOCCCNC(=O)c1ccc[n+]([C@@H]2O[C@H](COP(=O)([O-])O)[C@@H](O)[C@H]2O)c1)c1cccnc1 [compound 35-NMN-like metabolite] |  | SARM1 inhibitory activity (hSARM1 [1]): stronger activity than that of compound 35 |
|  |  | CC(C)(C)C(=O)Nc1ccc(CNC(=O)c2ccc[n+]([C@@H]3O[C@H](COP(=O)(O)OP(=O)([O-])OC[C@H]4O[C@@H](n5cnc6c(N)ncnc65)[C@H](O)[C@@H]4O)[C@@H](O)[C@H]3O)c2)cn1 [compound 76-NAD-like metabolite] |  | SARM1 inhibitory activity (hSARM1 [1]): stronger activity than that of compound 76 |
|  |  | CC(C)(C)C(=O)Nc1ccc(CNC(=O)c2ccc[n+]([C@@H]3O[C@H](COP(=O)([O-])O)[C@@H](O)[C@H]3O)c2)cn1 [compound 76-NMN-like metabolite] |  | metabolites detected in the plasma [2]: detected, albeit at a much lower concentration than that of compound 76; SARM1 inhibitory activity (hSARM1 [1]): stronger activity than that of compound 76 |
| ○ | > 50% | O=C(NCc1ccc(NC(=O)c2ccc(C(F)(F)F)cc2)nc1)c1cccnc1 [compound 83] | ≤ 0.01 µM |  |
|  | > 75% | O=C(NCc1ccc(NC(=O)c2cc(F)cc(C(F)(F)F)c2)nc1)c1cccnc1 [compound 84] | 0.01 to 0.1 µM | IC50 [4]: ≥ 100 nM |
| ○ | > 75% | O=C(NCc1ccc(NC(=O)c2ccccc2OC(F)(F)F)nc1)c1cccnc1 [compound 85] |  | Evaluation on protection against degeneration [3]: B (0.01 µM < B ≤ 0.1 µM) |
|  | > 75% | O=C(NCc1ccc(NC(=O)c2cccc(OC(F)(F)F)c2)nc1)c1cccnc1 [compound 86] | 0.01 to 0.1 µM | IC50 [4]: ≥ 100 nM |
| ○ | > 50% | O=C(NCc1ccc(NC(=O)c2ccc(OC(F)(F)F)cc2)nc1)c1cccnc1 [compound 87] | ≤ 0.01 µM |  |
| ○ | > 50% | CCC(C)(C)C(=O)Nc1ccc(CNC(=O)c2cccnc2)cn1 [compound 88] | 0.01 to 0.1 µM |  |
| ○ | > 50% | C#CCOc1ccc(C(=O)Nc2ccc(CNC(=O)c3cccnc3)cn2)cc1 [compound 91] | ≤ 0.01 µM |  |
| ○ | > 50% | O=C(NCCCCCCN1CCN(CCOC(=O)c2cccnc2)CC1)c1cccnc1 [compound 95] | ≤ 0.01 µM |  |
|  | > 75% | NCCOCCCCCCCCNC(=O)c1cccnc1 [compound 96] | ≤ 0.01 µM | IC50 [4]: ≥ 100 nM |
| ○ | > 10% | O=C(NCCOCCOc1ccccc1)c1cccnc1 [compound 98] | 0.01 to 0.1 µM |  |
| ○ | > 50% | COc1cccc(OCCOCCNC(=O)c2cccnc2)c1 [compound 99] | 0.01 to 0.1 µM |  |
| ○ | > 10% | O=C(NCCCC1NC(=O)C(CCCNC(=O)c2cccnc2)NC1=O)c1cccnc1 (stereo not drawn) [compound 103] | 0.01 to 0.1 µM |  |
| ○ | > 10% | O=C(NCCCCC1NC(=O)C(CCCCNC(=O)c2cccnc2)NC1=O)c1cccnc1 (stereo not drawn) [compound 104] | 0.1 to 1 µM |  |
|  |  | Nc1ncnc2c1ncn2[C@@H]1O[C@H](COP(=O)([O-])OP(=O)(O)OC[C@H]2O[C@@H]([n+]3cccc(C(=O)NCc4ccc(NC(=O)c5ccccc5)nc4)c3)[C@H](O)[C@@H]2O)[C@@H](O)[C@H]1O [compound 105-NAD-like metabolite] |  | SARM1 inhibitory activity (hSARM1 [1]): exhibited stronger activity in this order |
|  |  | O=C(NCc1ccc(NC(=O)c2ccccc2)nc1)c1ccc[n+]([C@@H]2O[C@H](COP(=O)([O-])O)[C@@H](O)[C@H]2O)c1 [compound 105-NMN-like metabolite] |  | SARM1 inhibitory activity (hSARM1 [1]): exhibited stronger activity in this order |
|  |  | O=C(NCc1ccc(NC(=O)c2ccccc2)nc1)c1ccc[n+]([C@@H]2O[C@H](CO)[C@@H](O)[C@H]2O)c1 [compound 105-riboside form] |  | SARM1 inhibitory activity (hSARM1 [1]): exhibited stronger activity in this order; production of metabolites [6]: confirmed |
|  | > 75% | O=C(NCc1ccc(NC(=O)C2CCOCC2)cc1)c1cccnc1 [compound 108] | ≤ 0.01 µM | IC50 [4]: ≥ 100 nM |
| ○ | > 75% | O=C(NCc1ccc(NC(=O)C2CCC2)cc1)c1cccnc1 [compound 109] | ≤ 0.01 µM |  |

| SMILES | Evaluation on NAMPT inhibitory [4] | inhibition at 30 µM (hSARM1 [5]; [7]) | minimal effective concentration [3] | further results |
| --- | --- | --- | --- | --- |
| NCCOCCOCCCCCCCCNC(=O)c1cccnc1 [compound 97] |  | > 75% | ≤ 0.01 µM | IC50 [4]: ≥ 100 nM |
| NCCCOCCOCCCNC(=O)c1cccnc1 [compound 106] | ○ | > 25% | ≤ 0.01 µM |  |
| O=C(NCc1ccc(NC(=O)c2ccccc2)c(F)c1)c1cccnc1 [compound 110] | ○ |  |  | Evaluation on protection against degeneration [3]: A (A ≤ 0.01 µM); inhibition at 30 µM (hSARM1 [5]; HEK293, read-out: Evaluation on hSARM1 inhibitory): > 25% |
